According to patent US9919060B2 (University Court of the University of Dundee, priority 2009, dated 2018):

Legend:
CYP1B1 = target: T1, CYP1B1 (Homo sapiens, UniProt Q16678); assay: CYP1B1 substrate prediction model (Gaussian Kernel weighted k-NN)
T1 sequence (Q16678 1-543): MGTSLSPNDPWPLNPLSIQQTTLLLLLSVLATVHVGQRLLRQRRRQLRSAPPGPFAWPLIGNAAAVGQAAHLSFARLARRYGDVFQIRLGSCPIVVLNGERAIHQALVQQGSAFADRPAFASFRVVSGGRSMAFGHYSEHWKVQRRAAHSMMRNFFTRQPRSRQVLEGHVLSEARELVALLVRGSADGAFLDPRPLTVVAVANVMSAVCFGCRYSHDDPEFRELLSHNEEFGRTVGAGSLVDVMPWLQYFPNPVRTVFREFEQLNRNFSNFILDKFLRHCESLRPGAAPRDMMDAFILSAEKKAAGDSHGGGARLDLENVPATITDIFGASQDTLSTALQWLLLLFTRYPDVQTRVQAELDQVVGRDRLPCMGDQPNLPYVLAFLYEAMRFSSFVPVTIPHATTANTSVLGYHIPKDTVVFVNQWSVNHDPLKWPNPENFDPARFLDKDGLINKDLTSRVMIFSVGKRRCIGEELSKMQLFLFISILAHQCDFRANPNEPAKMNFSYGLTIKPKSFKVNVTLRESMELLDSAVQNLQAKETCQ

CYP1A1 [1] = target: T2, CYP1A1 (Homo sapiens, UniProt P04798); type: cell-based; conditions: TMS 10 nmol dm^−3; without inhibitor 29 ± 4
T2 sequence (P04798 1-512): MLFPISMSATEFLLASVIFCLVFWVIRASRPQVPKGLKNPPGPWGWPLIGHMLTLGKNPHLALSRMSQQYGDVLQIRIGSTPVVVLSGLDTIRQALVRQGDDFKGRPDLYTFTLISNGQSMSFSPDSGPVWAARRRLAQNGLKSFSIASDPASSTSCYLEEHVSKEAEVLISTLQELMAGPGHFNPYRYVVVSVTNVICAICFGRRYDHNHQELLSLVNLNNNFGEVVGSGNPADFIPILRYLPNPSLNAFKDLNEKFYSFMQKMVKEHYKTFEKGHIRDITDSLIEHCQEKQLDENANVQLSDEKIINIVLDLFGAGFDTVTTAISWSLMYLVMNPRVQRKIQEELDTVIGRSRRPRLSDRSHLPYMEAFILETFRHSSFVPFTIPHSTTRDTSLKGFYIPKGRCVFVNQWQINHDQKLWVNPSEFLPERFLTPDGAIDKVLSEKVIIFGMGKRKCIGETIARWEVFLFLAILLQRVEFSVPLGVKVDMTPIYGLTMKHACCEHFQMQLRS
Method: (§1) Dihydrofolate reductase (DHFR) gene amplification of either human cDNA CYP1A1 or cDNA CYP1B1 in CHO cells was used to achieve high levels of functional enzyme when co-expressed with human P450 reductase (ibid.; Ding S, et al., Biochem J., 356(Pt 2): 613-9, 2001). […] The resulting cell lines were analysed for CYP1A1 or CYP1B1 expression by immunoblotting. […]
(§2) The ethoxyresorufin O-deethylation (EROD) assay is widely used to confirm functional CYP1 activity (Chang T K and Waxman D J, “Enzymatic Analysis of cDNA-Expressed Human CYP1A1, CYP1A2, and CYP1B1 with 7-Ethoxyresorufin as Substrate”, Methods Mol. Biol., 320: 85-90, 2006, the contents of which are incorporated herein by reference). The assay determines O-dealkylation of 7-ethoxyresorufin by CYP1A1, CYP1A2, and CYP1B1 to generate the enzymatic product resorufin, which is monitored continuously by fluorescence emission at 580 nm. […]

CYP1A1 [2] = target: T2, CYP1A1; conditions: TMS 10 nmol dm^−3; without inhibitor 21 ± 3
[3] = substrate: CCOc1ccc2nc3ccc(=O)cc-3oc2c1; type: cell-based, human; conditions: other: fluorogenic substrate
Method: as §1, §2

O=P1(N(CCCl)CCCl)NCCCO1 (stereo not drawn) [cyclophosphamide]
Toxicity in the CHO cytotoxicity assay at highest concentration (wild-type CHO cells): non-toxic

COc1cc(/C=C/c2ccc(OC)cc2OC)cc(OC)c1 [tetramethoxystilbene]
% CYP1B1 substrate inhibition, accuracy (predicted versus actual) (CYP1B1): 98%
Specific activity, CHO/CYP1A1, ethoxyresorufin (CYP1A1 [1]): 26 ± 4 pmol resorufin or luciferin min^−1 mg protein^−1
Specific activity, CHO/CYP1A1, Luciferin-CEE (CYP1A1 [2]): 20 ± 5 pmol resorufin or luciferin min^−1 mg protein^−1

B1: CYP1A1 (Homo sapiens) (protein)
chain: MLFPISMSATEFLLASVIFCLVFWVIRASRPQVPKGLKNPPGPWGWPLIGHMLTLGKNPHLALSRMSQQYGDVLQIRIGSTPVVVLSGLDTIRQALVRQGDDFKGRPDLYTFTLISNGQSMSFSPDSGPVWAARRRLAQNGLKSFSIASDPASSTSCYLEEHVSKEAEVLISTLQELMAGPGHFNPYRYVVVSVTNVICAICFGRRYDHNHQELLSLVNLNNNFGEVVGSGNPADFIPILRYLPNPSLNAFKDLNEKFYSFMQKMVKEHYKTFEKGHIRDITDSLIEHCQEKQLDENANVQLSDEKIINIVLDLFGAGFDTVTTAISWSLMYLVMNPRVQRKIQEELDTVIGRSRRPRLSDRSHLPYMEAFILETFRHSSFVPFTIPHSTTRDTSLKGFYIPKGRCVFVNQWQINHDQKLWVNPSEFLPERFLTPDGAIDKVLSEKVIIFGMGKRKCIGETIARWEVFLFLAILLQRVEFSVPLGVKVDMTPIYGLTMKHACCEHFQMQLRS
Km [3]: Ethoxyresorufin for CYP1A1and CYP1B1 Km ~0.27 μmol dm^−3 μmol dm^−3

B2: CYP1B1 (Homo sapiens) (protein)
chain: MGTSLSPNDPWPLNPLSIQQTTLLLLLSVLATVHVGQRLLRQRRRQLRSAPPGPFAWPLIGNAAAVGQAAHLSFARLARRYGDVFQIRLGSCPIVVLNGERAIHQALVQQGSAFADRPAFASFRVVSGGRSMAFGHYSEHWKVQRRAAHSMMRNFFTRQPRSRQVLEGHVLSEARELVALLVRGSADGAFLDPRPLTVVAVANVMSAVCFGCRYSHDDPEFRELLSHNEEFGRTVGAGSLVDVMPWLQYFPNPVRTVFREFEQLNRNFSNFILDKFLRHCESLRPGAAPRDMMDAFILSAEKKAAGDSHGGGARLDLENVPATITDIFGASQDTLSTALQWLLLLFTRYPDVQTRVQAELDQVVGRDRLPCMGDQPNLPYVLAFLYEAMRFSSFVPVTIPHATTANTSVLGYHIPKDTVVFVNQWSVNHDPLKWPNPENFDPARFLDKDGLINKDLTSRVMIFSVGKRRCIGEELSKMQLFLFISILAHQCDFRANPNEPAKMNFSYGLTIKPKSFKVNVTLRESMELLDSAVQNLQAKETCQ
Km [3]: Ethoxyresorufin for CYP1A1and CYP1B1 Km ~0.27 μmol dm^−3 μmol dm^−3
